Consider eight compounds from PubChem BioAssay (NCI).

Among the test systems are NCI-H460 lung; T-47D breast; MDA-MB-231 breast; HCT-15 colon; HT29 colon; SNB-75 CNS; UACC-62 melanoma; A498 renal; SK-MEL-28 melanoma; CCRF-CEM leukemia; MCF7 breast; EKVX NSCLC; MDA-N; SN12C renal; HOP-62 NSCLC; ACHN renal; MDA-MB-435; NCI-H522 lung; SK-MEL-5 melanoma; SR leukemia.
What all share (test): NCI-60 cell line screen, 48 h

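Each compound was tested at five concentrations against cells in 96-well plates for 48 hours. TGI marks complete inhibition of growth.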

For the compound `CCOc1ccc(N/C(=C(/C(Cl)=C(/Cl)NCCO)[N+](=O)[O-])n2nnc3ccccc32)cc1`, the TGI in the assay on NCI-H460 lung was more than 100 µM; in the assay with T-47D breast, 37.6 µM; in the assay with MDA-MB-231 breast, 63.8 µM; in the assay on HCT-15 colon it was 43.3 µM; in the assay on HT29 colon it was 85.3 µM; with SNB-75 CNS it was more than 100 µM. Moreover, the TGI in the assay on UACC-62 melanoma was 56.7 µM; with A498 renal it was more than 100 µM; in the assay on SK-MEL-28 melanoma, 37.7 µM; in the assay on CCRF-CEM leukemia, more than 100 µM; in the assay on MCF7 breast, 38.8 µM; in the assay on EKVX NSCLC it was more than 100 µM. In addition, the TGI in the assay on MDA-N is more than 100 µM; in the assay on SN12C renal it was 49.1 µM; in the assay with HOP-62 NSCLC, more than 100 µM; in the assay with ACHN renal, 48.4 µM; in the assay on MDA-MB-435, 35.1 µM.
For `OCCSCc1cc2c(O)c(c1)Cc1cc(CSCCO)cc(c1O)Cc1cc(CSCCO)cc(c1O)Cc1cc(CSCCO)cc(c1O)C2`, the TGI with NCI-H460 lung is 7.84 µM; in the assay on T-47D breast, 26.3 µM; in the assay with MDA-MB-231 breast, 7.21 µM; in the assay on HCT-15 colon, 33 µM; in the assay with HT29 colon, 7.4 µM; in the assay with A498 renal it was 17.3 µM. In addition, the TGI with SK-MEL-28 melanoma was found to be 13.1 µM; with CCRF-CEM leukemia, 68.2 µM; in the assay with NCI-H522 lung it was 14.7 µM; in the assay on MCF7 breast it was 14.5 µM; in the assay on SK-MEL-5 melanoma, 4.4 µM; with EKVX NSCLC it was 46.1 µM. For the same compound, the TGI in the assay on MDA-N came out at 11.8 µM; in the assay with SN12C renal it was 22.7 µM; in the assay with HOP-62 NSCLC, 15.6 µM; in the assay with ACHN renal, 9.61 µM; with MDA-MB-435, 9.04 µM.
As for `CCCCSC1=N/C(=C\c2ccco2)C(=O)N1`, the TGI in the assay with NCI-H460 lung, in the assay with T-47D breast, with MDA-MB-231 breast, in the assay with HCT-15 colon, in the assay with HT29 colon and in the assay on SNB-75 CNS was more than 100 µM each time. The TGI in the assay with UACC-62 melanoma, with A498 renal, in the assay on SK-MEL-28 melanoma, with CCRF-CEM leukemia, with NCI-H522 lung and with MCF7 breast was more than 100 µM each time. The TGI with SK-MEL-5 melanoma, in the assay with EKVX NSCLC, with MDA-N, in the assay on SN12C renal, with HOP-62 NSCLC and with ACHN renal was more than 100 µM in each case. Besides, in the assay with MDA-MB-435, the TGI is more than 100 µM.
Regarding `O=C1Nc2ccccc2[C@]12C[C@H]2c1ccccn1`, the TGI in the assay with NCI-H460 lung, in the assay on T-47D breast, in the assay on MDA-MB-231 breast, in the assay on HCT-15 colon, in the assay on UACC-62 melanoma and in the assay on A498 renal was more than 100 µM in each case. Moreover, the TGI in the assay with SK-MEL-28 melanoma, with CCRF-CEM leukemia, in the assay on NCI-H522 lung, in the assay on MCF7 breast, in the assay on SK-MEL-5 melanoma and with EKVX NSCLC was more than 100 µM each time. For the same compound, the TGI with MDA-N, with SN12C renal, with HOP-62 NSCLC, in the assay on ACHN renal and in the assay with MDA-MB-435 was more than 100 µM each time.
Turning to `Cn1c2ccccc2c(=O)c2c(O)cc3c(c21)C=CC1(CCCC1)O3`, the TGI in the assay on NCI-H460 lung, with MDA-MB-231 breast, in the assay on SR leukemia, in the assay with HCT-15 colon, in the assay on HT29 colon and in the assay with SNB-75 CNS was more than 100 µM throughout. Also, the TGI in the assay on UACC-62 melanoma, in the assay with A498 renal, in the assay on SK-MEL-28 melanoma, in the assay with CCRF-CEM leukemia, in the assay with NCI-H522 lung and in the assay on MCF7 breast was more than 100 µM throughout. The TGI with SK-MEL-5 melanoma, in the assay with EKVX NSCLC, in the assay with SN12C renal, with HOP-62 NSCLC, with ACHN renal and with MDA-MB-435 was more than 100 µM throughout.
As for `CC1(C)[C@@H]2C[C@H]1C(Cc1ccc(C[C@H]3c4cc(-c5ccccn5)ncc4[C@H]4C[C@@H]3C4(C)C)cc1)c1cc(-c3ccccn3)ncc12` (stereo partly drawn), the TGI was 13.8 µM in the assay with NCI-H460 lung; more than 100 µM in the assay on T-47D breast; more than 100 µM in the assay on MDA-MB-231 breast; 5.02 µM in the assay on SR leukemia; more than 100 µM with HCT-15 colon; more than 100 µM with HT29 colon. Moreover, the TGI was more than 100 µM in the assay with SNB-75 CNS; 5.68 µM in the assay with UACC-62 melanoma; 7.99 µM in the assay on A498 renal; 79.7 µM in the assay on SK-MEL-28 melanoma; more than 100 µM with NCI-H522 lung; more than 100 µM in the assay with MCF7 breast. Further, the TGI was 7.81 µM with SK-MEL-5 melanoma; 15 µM in the assay with EKVX NSCLC; 23.3 µM in the assay with SN12C renal; 11 µM in the assay with HOP-62 NSCLC; more than 100 µM with ACHN renal; 23.3 µM in the assay with MDA-MB-435.
On to `COc1ccc2c(c1)N(C(C)=O)CN1C(=O)CCC21` (stereo not drawn), for which the TGI in the assay with NCI-H460 lung, with T-47D breast, with MDA-MB-231 breast, in the assay with HCT-15 colon, with HT29 colon and with SNB-75 CNS was more than 100 µM in each case. For the same compound, the TGI in the assay with UACC-62 melanoma, with A498 renal, in the assay with SK-MEL-28 melanoma, with CCRF-CEM leukemia, with NCI-H522 lung and in the assay with MCF7 breast was more than 100 µM each time. For the same compound, the TGI in the assay with SK-MEL-5 melanoma, in the assay with EKVX NSCLC, in the assay on MDA-N, in the assay with SN12C renal, in the assay with HOP-62 NSCLC and in the assay on ACHN renal was more than 100 µM throughout. Besides, in the assay with MDA-MB-435, the TGI is more than 100 µM.
With `Cc1cn(CC2=NCC(C)(C)CN2)c(=O)[nH]c1=O`, the TGI in the assay with NCI-H460 lung, in the assay on T-47D breast, with MDA-MB-231 breast, with HCT-15 colon, in the assay with HT29 colon and with SNB-75 CNS was more than 100 µM in each case. For the same compound, the TGI in the assay on UACC-62 melanoma, in the assay with A498 renal, in the assay with SK-MEL-28 melanoma, in the assay on CCRF-CEM leukemia, in the assay on NCI-H522 lung and with MCF7 breast was more than 100 µM each time. Moreover, the TGI with SK-MEL-5 melanoma, in the assay with EKVX NSCLC, in the assay on MDA-N, in the assay with SN12C renal, in the assay with HOP-62 NSCLC and with ACHN renal was more than 100 µM throughout.
